The numbers were not newly measured in patent publication US20150297661A1, “ANALGESIC COMPOSITIONS AND METHODS OF USE” (priority 2014, published 2015), which cites them from elsewhere.

Bounds are passed on as bounds.

Take `CCOC(=O)c1ccc(N)cc1` [Benzocaine]: under “after application to skin or mucosal surface”, the duration of effect was 30 to 60 min. Moreover, the “time to peak effect after application” value (in contact with skin or mucosal surface) is no more than 1 min.
